pIC50: −log10 of the molar value.
Assays:
[1] = system: acetylated histone H4; test: Western blot of acetylated histone H4 in infected erythrocytes; assay type: cell-based, Plasmodium falciparum; conditions: 10 × IC50 for 4 h, trophozoites, vs DMSO
Description: (§1) Figure 5 Hydroxamic acid derivatives as potent in vitro PfHDAC1 inhibitors. […]. Enzyme activity was calculated by normalizing the data against the DMSO treated samples and discounting the background. Data are presented as shown above, with mean ± S.D. (n = 2). […]. Comparison of group/concentration against the DMSO control is represented as † for P < 0.0001. […]. Numbers on side of the bands represent the predicted mass (kDa) for each protein. (C,D) Band quantification of histone H3 (C) and H4 (D), respectively, normalizing their acetylated detection against their unmodified version. Differences to this value were analyzed by one way ANOVA using the Dunnett’s post correction, comparing each group against the DMSO control, as rank tests where P values are explicitly depicted.
(§2) Western Blot analysis. […]. Proteins were transferred to PVDF membranes, 5% non-fat dry milk in TBS with Tween 20 (0.1%) was used as blocking agent for 1 h at room temperature. After, incubated with the antibodies overnight at 4 °C (Acetyl Histone H3 Lys9 C5B11 Cell Signaling, Acetyl Histone H4 Lys16 E2B8W Cell Signaling, Histone H3 96C10 Cell Signaling and Histone H4 D2X4V Cell Signaling). For the analysis of protein acetylation levels, the membranes were stripped and re-probed with the corresponding anti-total protein. Mouse monoclonal anti-α-Tubulin (B512 Sigma-Aldrich) was used as loading control. Detection was performed by enhanced chemiluminescence using horseradish peroxidase-conjugated secondary antibodies (Vector Laboratories, Burlingame, CA, USA) and SuperSignal TM West Pico PLUS Chemiluminescent substrate kit (Thermo Scientific). Images were acquired using ChemiDoc TM Imaging System (BioRad Laboratories, CA, USA). Quantitative densitometry was carried out using ImageLab software (Bio-Rad Laboratories, CA, USA). The volume density of the chemiluminescent bands was calculated as an integrated optical density × mm^2 after background correction from each independent experiment (N = 3).

[2] = system: acetylated histone H3; test: Western blot of acetylated histone H3 in infected erythrocytes; assay type: cell-based, Plasmodium falciparum; conditions: 10 × IC50 for 4 h, trophozoites, vs DMSO
Description: as §1, §2

[3] = system: Jurkat; set-up: method as in PMID 33668008; conditions: Fig. 1A; cited from earlier work
[4] = system: Namalwa; set-up: method as in PMID 33668008; conditions: Fig. 1A; cited from earlier work
[5] = system: P. falciparum Dd2; test: Antiplasmodial SYBR Green I proliferation assay, P. falciparum Dd2; assay type: cell-based; conditions: Plasmodium falciparum, DD2; multidrug/CQ-resistant strain; read-out: IC50 P. falciparum Dd2
From the text: Antiplasmodial activity against P. falciparum 3D7 (A, C and E) and P. falciparum Dd2 (B, D, F). […] Curves were plotted using non-linear regression based on means from three independent experiments measured in triplicate. Error bars indicate standard deviation, whose values are provided in the respective table.
Plasmodium falciparum culture and antiplasmodial activity. […] Development, parasitaemia, and morphology of parasites were monitored by light microscopy of thin blood smears stained according to the Romanowsky method (Panótico Rápido staining kit; Laborclin, Pinhais, Paraná, Brazil). […] Fresh 0^+ blood was generously provided by “Hospital Novo Atibaia” (Atibaia, SP, Brazil), and approved by the ethics committee at ICB-USP. The antiplasmodial effect of all compounds was validated against P. falciparum 3D7 strain conducting SYBR Green I (Invitrogen) drug assays as previously reported[30],[46] as a modification of the original procedure. […] Parasite proliferation was measured by the DNA load via fluorescence, using 100 μL of a lysis buffer with SYBR Green I (0.02% v/v) and incubated for 1 h at room temperature in the dark. […] Focal and gain adjustment was performed using the non-treated controls (highest expected fluorescence signal). Data was acquired via the CLARIOstar (V5.20) and MARS software, manually scaled to 0–100%, and plotted using GraphPad Prism (v9.5.2 for Windows, GraphPad Software, La Jolla California USA, www.graphpad.com). Non-treated parasites, the highest solvent concentration on parasites, CQ on parasites, and the highest drug concentration in the medium were used as controls for maximal growth, solvent control, positive biological control, and native drug fluorescence, respectively.

Structure (SMILES) | Acetylated-H4 level (normalised to unmodified H4) [1] | Acetylated-H3 level (normalised to unmodified H3) [2] | pIC50 [3] | pIC50 [4] | pIC50 [5]
COc1ccc(NC(=O)Nc2ccc(/C=C/C(=O)NO)cc2)cc1 [Compound 6c, (E)-N-hydroxi-3-(4-(3-(4-methoxyphenyl)ureido)phenyl)acrylamide] | significant elevation | – | – | – | –
COc1ccc(NC(=O)Nc2ccc(CCC(=O)NO)cc2)cc1 [Compound 7c, N-hydroxy-3-(4-(3-(4-methoxyphenyl)ureido)phenyl)propanamide] | – | two-fold increase | – | – | –
O=C(Nc1ccccc1)Nc1ccc(C(=O)NO)cc1 [Compound 8a, N-hydroxy-4-(3-phenylureido)bezamide] | – | – | 5.60 | 6.28 | –
COc1ccc(NC(=O)Nc2ccc(C(=O)NO)cc2)cc1 [Compound 8c, N-hydroxy-4-(3–4(-methoxyphenyl)ureido)benzamide] | significant elevation | two-fold increase | – | – | 6.10
